Article PMC7243119, “Improved Surface Display of Human Hyal1 and Identification of Testosterone Propionate and Chicoric Acid as New Inhibitors” (Pharmaceuticals, 2020)

Legend:
Hyal1 [1] = biological target: T1, Hyal1 (Homo sapiens, UniProt Q12794); assay: Stains-all HA degradation assay with surface-displayed Hyal1 on E. coli cells, pH […] (incomplete curve; assay impaired beyond […]); assay type: cell-based
T1 sequence (Q12794 22-435): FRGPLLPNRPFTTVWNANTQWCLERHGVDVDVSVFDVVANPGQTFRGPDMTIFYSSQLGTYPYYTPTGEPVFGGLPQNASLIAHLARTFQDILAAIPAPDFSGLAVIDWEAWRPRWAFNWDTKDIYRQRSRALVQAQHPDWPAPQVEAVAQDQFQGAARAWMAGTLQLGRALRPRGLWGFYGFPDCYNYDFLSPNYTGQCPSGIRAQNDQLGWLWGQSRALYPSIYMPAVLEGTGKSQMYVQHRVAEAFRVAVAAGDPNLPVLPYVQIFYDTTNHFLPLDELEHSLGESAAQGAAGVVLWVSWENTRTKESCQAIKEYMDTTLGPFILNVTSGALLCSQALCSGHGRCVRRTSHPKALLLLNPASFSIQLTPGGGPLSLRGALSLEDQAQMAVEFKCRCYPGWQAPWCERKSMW

Hyal1 [2] = biological target: T1, Hyal1; assay: Stains-all HA degradation assay with surface-displayed Hyal1 on E. coli cells, pH […]; assay type: cell-based

| Structure (SMILES) | IC50 (Hyal1 [1]) | IC50 (Hyal1 [2]) |
| --- | --- | --- |
| O=C(/C=C/c1ccc(O)c(O)c1)O[C@@H](C(=O)O)[C@@H](OC(=O)/C=C/c1ccc(O)c(O)c1)C(=O)O [chicoric acid] | 171 µM | – |
| CCC(=O)O[C@H]1CC[C@H]2[C@@H]3CCC4=CC(=O)CC[C@]4(C)[C@H]3CC[C@]12C [testosterone propionate] | – | 124 ± 1.1 µM |
